Measurements as given in patent publication EP0192609A2, “Acylated hexose derivatives and method for their preparation” (CIBA-GEIGY AG, priority 1985, dated 1986).

System: Influenza-Viren
Assay: own studies in mice infected with influenza viruses (prophylaxis and therapy of virus infection, compound alone without vaccine)
Assay type: in vivo, Mäuse
Conditions: per se, i.e. without added vaccine
From the text: Aus der Französischen Patentanmeldung Nr. 74 22 909 mit der Publikationsnummer 2 292 486 sind Muramylpeptide vom Typ der Verbindung N-Acetyl-muramyl-L-alanyl-D-isoglutamin ("MDP") bekannt. Diese Verbindungen sind als immunologische Adjuvanzien beschrieben, d.h. sie können in Mischung mit Impfstoffen dazu benützt werden, den Impferfolg zu verbessern. Eigene Untersuchungen, z.B. bei mit Influenza-Viren infizierten Mäusen, haben ergeben, dass N-Acetyl-muramyl-L-alanyl-D-isoglutamin per se, d.h. ohne Beimengung von Impfstoffen, bei der Prophylaxe und Therapie von Virusinfektionen unwirksam ist. Auch ist die Verwendbarkeit strukturell einfacher Muramylpeptide und ihrer Analogen gegen Virusinfektionen bisher nicht beschrieben.

CC(=O)N[C@H]1C(O)O[C@H](CO)[C@@H](O)[C@@H]1O[C@H](C)C(=O)N[C@@H](C)C(=O)N[C@H](CCC(=O)O)C(N)=O (stereo partly drawn) [N-Acetyl-muramyl-L-alanyl-D-isoglutamin]
Wirksamkeit bei der Prophylaxe und Therapie von Virusinfektionen: unwirksam
